In one experiment the test system is A549 lung cancer cells. The experiment in a line: KRAS-mediated mitochondrial fission in A549 cells. Type of experiment: cell-based, human. Conditions: A549, oncogenic KRAS; 893 5 μM 1 h, leflunomide 50 μM 24 h. The procedure: 3T3-L1 cells were maintained in DMEM with 10% FBS and 1% penicillin-streptomycin until induced to differentiate. 3T3-L1 pre-adipocytes were differentiated as described in (M. P. Valley, et al., Anal. Biochem. 505: 43-50, 2016, the disclosure of which is incorporated herein by reference) with slight modifications. Briefly, pre-adipocytes were grown to confluence. After 2 d, cells were induced with maintenance media containing 500 μM IBMX (15879, Sigma-Aldrich, St. Louis, Mo.), 1 μM dexamethasone (D4902, Sigma-Aldrich), 5 μg/mL bovine insulin (10516, Sigma-Aldrich), and 5 μM troglitazone (50-115-0786, ApexBio). Media was changed every 2-3 d for 7 d. On day 7 post-induction, media was changed to maintenance media+5 μg/mL bovine insulin. On day 9 post-induction, media was changed to maintenance media. Mature adipocytes were used 12-14 d post-induction for all experiments. LSL-KrasG12D mouse embryonic fibroblasts (MEFs) with and without Cre-mediated deletion of the STOP cassette were obtained from David Tuveson (Cold Spring Harbor Laboratory, Cold Spring Harbor N.Y., USA) in 2000. p53^flox/flox MEFs were derived in house (2015) from C57BL/6 mice using standard techniques and immortalized by transient expression of Cre recombinase and deletion of p53. MEFs were cultured and maintained in DMEM with 10% FBS and 1% penicillin-streptomycin. A549 cells were cultured in DMEM with 10% FBS, 1% penicillin-streptomycin and 1% sodium pyruvate. Stock solution of palmitic acid (ACROS Organics, cat # AC129702500) was prepared at 100 mM in ethanol. Palmitate (250 μM) was conjugated to 1% (w/v) fatty-acid free bovine serum albumin (Sigma, A8806) in DMEM at 37° C. for 20 min. For all immunofluorescence assays, 8,000 MEFs were seeded into 8-chamber slides (Cellvis, cat # C8-1.5H-N) 12-16 h before treatment. Cells were pre-treated with sphingolipid-like compound 893 (5 μM in water), myriocin (10 μM in methanol), fumonisin-B1 (30 μM in DMSO), or celastrol (500 nM in DMSO) for 3 h followed by a 3 h treatment with BSA-conjugated palmitate mixture or BSA alone. […]
MEFs were washed twice with PBS and fixed with 4% paraformaldehyde for 10 min at RT. […] NADH/NADPH autofluorescence was detected with 740 nm excitation and 450±50 nm detectors using a Mai Tai two-photon laser. Fluorescence microscopy was performed on a Zeiss LSM 780 confocal using a 63× oil objective with a […] numerical aperture (NA) or using a Nikon TE2000-S inverted epifluorescence microscope with a 100× oil objective (1.3 NA) and a Photometrics CoolSNAP ES2 monochrome CCD camera. […]

Another experiment relates to leptin. The experiment in a line: Serum leptin ELISA in HFD-fed mice. The class given is in vivo, mouse. The procedure: Further assessment was performed to determine the level of leptin circulating in HFD-fed mice treated with sphingolipid-like compound 893. Mice were fed a HFD for 4 weeks and randomly distributed into two groups with the same mean weight. Mice were gavaged with water (n=7) or 120 mg/kg 893 (n=8) at ZT8.5. Blood was collected from the saphenous vein between ZT15-18 in pairs of treated vs. untreated animals and leptin levels were measured in serum using ELISA (CrystalChem, cat #90030).
(In general: ELISA stands for enzyme-linked immunosorbent assay.)

`CCCCCCCCc1ccc([C@H]2CCN[C@@H]2CO)cc1.Cl` [compound 893]: the “Reversal of mitochondrial fragmentation / tubularity in A549 cells” value with A549 lung cancer cells is recorded as “rapidly corrected KRAS-mediated mitochondrial fission”. Moreover, the “Leptin production by adipocytes” value with leptin (in vivo) was “reduced leptin production by adipocytes in vivo”. The “Circulating leptin levels (serum)” value in the experiment with leptin (mice on HFD 4 weeks, 120 mg/kg at ZT8.5, blood at ZT15-18) was “lowered levels of circulating leptin”.

These data come from US20220409617A1, “Drug Formulations and Methods of Treatment for Metabolic Disorders” (The Regents of the University of California, priority 2019, published 2022).
